Residues, ends and D or L forms follow the SMILES beside them. *: point of attachment. StBu = CC(C)(C)S*
What was measured:
mice = settings: arginine-rich versus nonarginine peptides; cited from earlier work
Female Rag2−/− mice [1] = settings: mouse, in vivo, iv
Female Rag2−/− mice [2] = experiment: Assessment of kidney function; assay type: in vivo; settings: one week after injection, still within the reference range
Female Rag2−/− mice [3] = experiment: In vivo toxicity: animal survival after intravenous injection; settings: i.v.; all of the doses tested (0.0125-0.4 mmol/kg)
Female Rag2−/− mice [4] = settings: mouse, in vivo, iv; remark: listed apart in the source

## NCCCC(=O)O [GABA]
mice
  survival of mice exposed to the peptide: mice survived

## CC(=O)N[C@@H](CCCNC(=N)N)C(=O)N[C@@H](CCCNC(=N)N)C(=O)N[C@@H](C)C(=O)N[C@@H](C)C(=O)N[C@@H](CC(N)=O)C(=O)N[C@@H](CSSC(C)(C)C)C(=O)N[C@@H](CCCCN)C(=O)O [R2] (Ac-RRAANC(StBu)K-OH)
Female Rag2−/− mice [1]
  liver enzyme levels (AST, ALT, ALP) in blood plasma: no significant differences

## CC(=O)N[C@@H](CCCNC(=N)N)C(=O)N[C@@H](CCCNC(=N)N)C(=O)N[C@@H](CCCNC(=N)N)C(=O)N[C@@H](C)C(=O)N[C@@H](C)C(=O)N[C@@H](CC(N)=O)C(=O)N[C@@H](CSSC(C)(C)C)C(=O)N[C@@H](CCCCN)C(=O)O [R3] (Ac-RRRAANC(StBu)K-OH)
Female Rag2−/− mice [1]
  liver enzyme levels (AST, ALT, ALP) in blood plasma: no significant differences
Female Rag2−/− mice [2]; 0.1 mmol/kg i.v.
  creatinine levels in urine: observable increase
  total protein levels in urine: observable increase

## ACSSSPSKHCG [TD]
mice
  survival of mice exposed to the peptide: mice survived

## RAANCK [R1]
Female Rag2−/− mice [3]
  observable toxicity in animals: did not exhibit any observable toxicity
Female Rag2−/− mice [1]
  liver enzyme levels (AST, ALT, ALP) in blood plasma: no significant differences

## RRRRAANCK [R4]
Female Rag2−/− mice [4]
  WBC counts: significant increase
  platelet counts: significant decrease
Female Rag2−/− mice [1]
  AST levels in blood plasma: significant increase
Female Rag2−/− mice [2]; 0.5 mmol/kg i.v.
  creatinine levels in urine: observable increase
  total protein levels in urine: observable increase

## RRRRRAANCK [R5]
Female Rag2−/− mice [4]
  WBC counts: significant increase
  platelet counts: significant decrease
Female Rag2−/− mice [1]
  ALP levels in blood plasma: increased
  ALT levels in blood plasma: increased
  AST levels in blood plasma: significant increase

## RRRRRRAANCK [R6]
Female Rag2−/− mice [4]
  WBC counts: significant increase
Female Rag2−/− mice [1]
  liver enzyme levels (AST, ALT, ALP) in blood plasma: no significant differences
